Measurements reported in article PMC8119899, “A Single Mutation in the Outer Lipid-Facing Helix of a Pentameric Ligand-Gated Ion Channel Affects Channel Function Through a Radially-Propagating Mechanism” (Frontiers in Molecular Biosciences, 2021).
Changes are numbered by the printed parent chain.

Experiments:
5-HT3A receptor K255L = target: T1, 5-HT3A receptor K255L (Mus musculus, UniProt P23979, K282L); assay: FlexStation membrane potential dye, 5-HT response, K255L receptor in HEK293 cells; type: cell-based; design: key: Mutants that did not respond in the functional assay are marked as non functional (NF)
T1 construct: expressed in transfected cells
T1 sequence (P23979 24-489 K282L): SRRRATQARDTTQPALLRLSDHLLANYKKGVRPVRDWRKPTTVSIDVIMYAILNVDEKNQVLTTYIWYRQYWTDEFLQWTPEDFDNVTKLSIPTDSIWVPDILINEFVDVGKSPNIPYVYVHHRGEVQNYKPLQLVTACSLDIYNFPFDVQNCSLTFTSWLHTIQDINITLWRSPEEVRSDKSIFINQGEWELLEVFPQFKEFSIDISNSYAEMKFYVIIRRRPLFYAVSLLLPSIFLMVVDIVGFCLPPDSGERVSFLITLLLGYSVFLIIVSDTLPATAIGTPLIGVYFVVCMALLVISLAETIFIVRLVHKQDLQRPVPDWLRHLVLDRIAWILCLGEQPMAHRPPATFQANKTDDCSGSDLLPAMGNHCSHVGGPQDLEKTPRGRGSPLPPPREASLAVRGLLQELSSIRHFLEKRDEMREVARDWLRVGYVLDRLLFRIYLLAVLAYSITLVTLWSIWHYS
Procedure: (§1) The mouse 5-HT3A cDNA (Q6J1J7) in pcDNA3.1 (for HEK cell transfection) or pGEMHE (for RNA production) was modified by QuikChange site-directed mutagenesis (Agilent Technologies) to create point mutants (verified by sequencing).
Human embryonic kidney (HEK) 293 cells were maintained at 37 °C at 5% CO2 in a humidified atmosphere, in Dulbecco's Modified Eagle's Medium/Nutrient Mix F12 (1:1) (Invitrogen, Paisley, UK) with GlutaMAX^TM and 10% fetal bovine serum (GE Healthcare) (DMEM/FBS) and passaged when confluent. Five micrograms of WT or mutant 5-HT3A DNA and 30 μl polyethyleneamine (Polysciences) incubated for 10 min in 1 mL DMEM was added to 60% confluent HEK293 cells for transfection, and cells grown for 2 days before assays.
As described previously (Price and Lummis, [2005]) cells were incubated for 45 min with fluorescent membrane potential-sensitive dye (Membrane Potential Blue kit, Molecular Devices) diluted in Flex buffer (10 mM HEPES, 115 mM NaCl, 1 mM KCl, 1 mM CaCl2, 1 mM MgCl2, and 10 mM glucose, pH 7.4), and subsequently assayed at room temperature for 180 s, with readings every 2 s. […] (log of the concentration of ligand), a is the minimum response, b is the maximum response, and nH is the Hill slope.

5-HT3A receptor K255A = target: T2, 5-HT3A receptor K255A (Mus musculus, UniProt P23979, K282A); assay: Two-electrode voltage clamp, 5-HT response, K255A receptor in Xenopus oocytes; type: cell-based; details: mean and SEM, n ≥ 3
T2 sequence (P23979 24-489 K282A): T1 sequence (P23979 24-489 K282L) with L259A
Procedure: as §1
Xenopus laevis oocytes from EcoCyte Biosciences (Austin Texas) were injected with 100 pg cRNA (generated with the ThermoFisher mMESSAGE mMACHINE T7 transcription kit) and left in injection media [88 mM NaCl, 2.4 mM NaHCO3, 1 mM KCl, 0.82 mM MgSO4 ·7H20, 5 mM Tris-HCl, 0.33 mM Ca(NO3)2·4H2O, 0.41 mM CaCl2·2H2O, 2.51 mM sodium pyruvate, 0.12 mg/ml theophylline, 0.05 mg/ml gentamicin, pH 7.5] at 16 °C for 24 h. […] The holding potential was −60 mV, using glass microelectrodes with a resistance of approximately 1 MΩ backfilled with 3M KCl.

For NCCc1c[nH]c2ccc(O)cc12 [5-HT], which pEC50 (5-HT3A receptor K255L) is on record?
Its pEC50 is “NF”.

And the nH (5-HT3A receptor K255A)?
Its nH is 1.9 ± 0.5.
